Measurements taken from US4210754A, “Morpholino containing benzamides” (Hoffmann-La Roche Inc., priority 1978, dated 1980).

Columns and labels:
[1] = tested on: monoamine oxidase (MAO); experiment: MAO inhibiting activity in liver homogenates of rats after p.o. administration; format: in vivo; details: animals killed one hour after administration, MAO measured in liver homogenates, 60 min
Method: (§1) The MAO inhibiting activity of the compounds of formula I of the invention can be determined using standard methods. Thus, the compounds of formula I to be tested were administered p.o. to rats. One hour thereafter the animals were killed and the MAO inhibiting activity in the liver homogenates was measured according to the method described in Biochem. Pharmacol. 12 (1963) 1439-1441. The activity thus determined of representative compounds of the present invention and their toxicity can be seen from the ED50 values (μmol/kg.p.o. in rats) and LD50 values (mg/kg, p.o. in mice) listed in the Table which follows: […]

[2] = toxicity (LD50) p.o. in mice; details: mouse, in vivo, po
Method: as §1

[3] = toxicity (LD50) p.o. in rats; details: rat, in vivo, po, after 10 days

## O=C(NCCN1CCOCC1)c1ccc(Cl)cc1[N+](=O)[O-] [4-chloro-N-(2-morpholinoethyl)-2-nitrobenzamide]
[1]
  ED50 (MAO inhibiting activity): 2 µmol/kg

## O=C(NCCN1CCOCC1)c1ccc(F)cc1 [p-fluoro-N-(2-morpholinoethyl)-benzamide]
[1]
  ED50 (MAO inhibiting activity): 11 µmol/kg
[2]
  LD50: 1250 to 2500 mg/kg

## CC(C)(C)c1ccc(C(=O)NCCN2CCOCC2)cc1 [p-t-butyl-N-(2-morpholinoethyl)-benzamide]
[1]
  ED50 (MAO inhibiting activity): 16 µmol/kg
[2]
  LD50: 1250 to 2500 mg/kg

## O=C(NCCN1CCOCC1)c1ccc(Cl)cc1 [p-chloro-N-(2-morpholinoethyl)-benzamide]
[1]
  ED50 (MAO inhibiting activity): 5 µmol/kg
[3]
  LD50 at 240 h: 707 ± 55 mg/kg

## O=C(NCCN1CCOCC1)c1ccc(C(F)(F)F)cc1 [α,α,α-trifluoro-N-(2-morpholinoethyl)-p-toluamide]
[1]
  ED50 (MAO inhibiting activity): 16 µmol/kg
[2]
  LD50: 1000 to 2000 mg/kg

## O=C(NCCN1CCOCC1)c1ccc(Cl)cc1Cl [2,4-dichloro-N-(2-morpholinoethyl)-benzamide]
[1]
  ED50 (MAO inhibiting activity): 13 µmol/kg
[2]
  LD50: 1250 to 2500 mg/kg

## O=C(NCCN1CCOCC1)c1ccc(Br)cc1 [p-bromo-N-(2-morpholinoethyl)-benzamide]
[1]
  ED50 (MAO inhibiting activity): 6 µmol/kg
[2]
  LD50: 1250 to 2500 mg/kg

## O=C(NCCN1CCOCC1)c1ccc(I)cc1 [p-iodo-N-(2-morpholinoethyl)-benzamide]
[1]
  ED50 (MAO inhibiting activity): 4 µmol/kg
[2]
  LD50: 1250 to 2500 mg/kg
